Reference: a melting point compilation (Tetko et al.; mined from patent text by program, amines drawn as free bases though some values may be those of a salt)

First: COc1ccc2c(c1)c(-c1ccccc1)nc1nnc(C)n12
Second: COc1cc([N+](=O)[O-])ccc1-c1ccccc1
The melting point of the first is higher: 251 to 252 °C for the first, 71 °C for the second.

First: NNc1nc(-c2ccccc2)co1
Second: CC(=NOCCO)c1ccc(-c2ccccc2)nc1
The melting point of the first is higher: 158 to 160 °C for the first, 76 °C for the second.

First: CCCc1nc2c(N)nc3ccccc3c2n1CC(C)(C)CC1(C)OCCO1
Second: COCCc1nc2c(N)nc3cc(OCc4ccccc4)ccc3c2n1CCCCNC(N)=O
The melting point of the first is higher: 186 to 188 °C for the first, 170 to 171 °C for the second.

First: CCOC(=O)c1cn(C2CC2)c2c(Br)c(F)c(F)cc2c1=O
Second: CCOC(=O)C1=C(C)NN=C(CC)C1c1cccc(Cl)c1 (centres undefined)
The melting point of the first is higher: 164 to 168 °C for the first, 112 °C for the second.

Compared with `c1ccc(-c2noc(COc3ccc(CCCn4ccnc4)cc3)n2)cc1`, `O=c1nc(-c2ccccn2)sc2ccc(OCCCc3ccccc3)cc12` is higher in melting point: 124 to 125 °C for the first, 170 °C for the second.

Compared with `CSc1ccc(-c2ccc(C(=O)Nc3ccc4cc(CN5CCCC5)cnc4c3C)cc2)cc1`, `Cc1c(NC(=O)c2ccc(-c3ccccc3F)cc2F)ccc2cc(CN3CCCC3)cnc12` is lower in melting point: 206 to 208 °C for the first, 159 to 160 °C for the second.

First: Cc1ccc(S(=O)(=O)N2CCC(c3cccc4c3CCCC(C(=O)O)=C4)CC2)cc1
Second: O=C(NO)C(CC(=O)N1CCOCC1)NS(=O)(=O)c1ccc(-c2ccc(Cl)cc2)cc1 (centres undefined)
The melting point of the first is higher: 255 to 257 °C for the first, 139 to 141 °C for the second.

First: C[C@@H]1CNCCN1C(=O)OC(C)(C)C
Second: COc1ccc(N2CN(CC(=O)O)C(=O)C23CCN(C(=O)OC(C)(C)C)CC3)cc1
The melting point of the first is lower: 33 to 36 °C for the first, 173 to 174 °C for the second.

First: CCCN1CCN(Cc2ccc3c(c2)-c2[nH]nc(-c4ccsc4)c2C3)CC1
Second: CCCCCn1c2ccc(CN3CCCCC3)cc2c2ccc(OC)cc21
The melting point of the first is higher: 185 to 187 °C for the first, 64 to 65 °C for the second.

Compared with `CCN(CC)C(=O)NC1C=C2c3cccc4[nH]c(Br)c(c34)CC2N(C)C1` (centres undefined), `Cc1nn(C)cc1C(=O)Nc1ccccc1-c1ccc(F)c(Cl)c1` is lower in melting point: 204 to 208 °C for the first, 177 to 180 °C for the second.

First: COC(=O)C1=C(C)NC(=S)N(C(=O)OC)C1c1cccc([N+](=O)[O-])c1 (centres undefined)
Second: CCOC(=O)c1nc(-c2ccc([N+](=O)[O-])cc2)[nH]c1-c1cccc(OC)c1
The melting point of the first is lower: 172 to 173 °C for the first, 194 to 196 °C for the second.

First: COc1ccc(S(C)(=O)=O)cc1C=O
Second: CS(=O)(=O)c1cc(C(=O)O)c(Cl)cc1Oc1ccccc1
The melting point of the first is lower: 140 to 143 °C for the first, 200 °C for the second.

First: C#CCN(C(=O)OC(C)(C)C)c1cn(-c2cncc(F)c2)nc1C
Second: CC(C)(C)OC(=O)N[C@@H](Cc1cc(F)cc(F)c1)C(=O)CCl
The melting point of the first is lower: 81 to 82 °C for the first, 139 °C for the second.

Compared with `O=C1c2ccccc2CN1C1CCN(c2ccc(C(O)c3ccccc3)cc2)CC1` (centres undefined), `O=C1CCC(N2Cc3c(OCc4ccc(CN5CCC(c6ccccc6)CC5)cc4)cccc3C2=O)C(=O)N1` (centres undefined) is higher in melting point: 211 to 214 °C for the first, 220 to 222 °C for the second.

First: CC(=O)Oc1ccc(C=C2CCCc3cc(C)cnc32)cc1OC(C)=O
Second: Cc1ccc(NC(=O)Oc2ccc3c(c2)NCCC3)cc1
The melting point of the first is lower: 100 to 101 °C for the first, 128 °C for the second.

First: Cc1cc(F)ccc1Nc1nc(N2CCc3ccccc3C2C)c2cccc(OCCO)c2n1 (centres undefined)
Second: O=C(O)c1ccccc1NCCC=C1c2ccccc2CCc2ccccc21
The melting point of the first is lower: 120 to 122 °C for the first, 164 to 167 °C for the second.

First: CSc1ccc2c(c1)C(O)c1ccccc1C=C2 (centres undefined)
Second: COC(=O)c1ccc2occ(-c3ccc(SC)cc3)c2c1
The melting point of the first is higher: 117 to 118 °C for the first, 95 to 96 °C for the second.

Compared with `Clc1ccc(-c2nc(Br)cnc2Br)cc1`, `O=c1c(Cl)c(OCc2ccc(Cl)cc2Cl)cnn1-c1ccc(Cl)cc1` is higher in melting point: 123 to 125 °C for the first, 168 to 169 °C for the second.

First: Cc1ncc2c(=O)n(C)c(=O)n(C)c2n1
Second: O=Cc1nc(C(Cl)Cl)cnc1N1C(=O)c2ccccc2C1=O
The melting point of the first is lower: 113 to 115 °C for the first, 145 to 146 °C for the second.

First: Clc1cccc(N2CCN(CCCOc3ccc4cn[nH]c4c3)CC2)c1Cl
Second: CC(C)c1nc(-c2cc3cc(OCCNC[C@H](O)c4cccc(Cl)c4)ccc3o2)no1
The melting point of the first is higher: 159 to 161 °C for the first, 84 to 87 °C for the second.

Compared with `C=C(C)/C=C(\NC(C)=O)C1(c2ccc(Cl)cc2)CCC1`, `O=[N+]([O-])c1ccc(C2(Br)CCCCC2)cc1` is lower in melting point: 120 °C for the first, 83.5 to 85.5 °C for the second.

Compared with `N#Cc1cnc2c(sc3ccc([N+](=O)[O-])cc32)c1Nc1ccc(Cl)cc1Cl`, `CC1=Cc2ccc(Cl)cc2C(c2ccc([N+](=O)[O-])c(C)c2)=NN1C(=O)Oc1ccccc1` is lower in melting point: 210 to 213 °C for the first, 188 to 190 °C for the second.

Compared with `CC(=O)Nc1nc2ccc(OC(C)=O)cc2n1S(=O)(=O)N(C)C`, `COC(=O)c1cc(O)c2cc(OC)ccc2c1` is higher in melting point: 164 to 166 °C for the first, 193 to 195 °C for the second.

Compared with `COc1cccc(COc2ccc3oc(-c4nc(C(C)(C)C)cs4)cc3c2)c1OC(C)C(N)=O` (centres undefined), `CC(C)(C)Sc1c(CC(C)(C)C(=O)O)n(Cc2ccc(Cl)cc2)c2ccc(OCc3cccs3)cc12` is higher in melting point: 155 to 156 °C for the first, 204 to 205 °C for the second.

Compared with `Cc1cccc(CC(NC(=O)C(c2ccccc2)c2ccccc2)C(=O)NC(C#N)COCc2cccc(C(=O)O)c2)c1` (centres undefined), `Cc1ccc(NS(=O)(=O)c2ccccc2)cc1NC(=O)Cc1ccc(C#N)cc1` is lower in melting point: 160 to 162 °C for the first, 120 to 122 °C for the second.

Compared with `CCCCCCc1oc(C=Cc2ccccc2)nc1C(=O)O`, `N#Cc1ccccc1OCCCCC(=O)O` is lower in melting point: 133 to 134 °C for the first, 87 to 89 °C for the second.

Compared with `O=c1c(Br)c(OCc2cccc(Cl)c2)ccn1Cc1cccc(F)c1`, `O=C(O)CN1C(=O)C(=Cc2ccc(OCc3ccccc3)c(OCc3ccc(F)c(F)c3)c2)SC1=S` is higher in melting point: 149 to 153 °C for the first, 231 to 236 °C for the second.

First: O=S1NC(CC2=C(Cl)c3ccccc3CC2)=NO1 (centres undefined)
Second: O=CN1CC(CCN2CC=C(c3c[nH]c4cc(Cl)ccc34)CC2)c2ccccc21 (centres undefined)
The melting point of the first is lower: 90.5 to 91.5 °C for the first, 183 to 185 °C for the second.

Going from `O=[N+]([O-])C=C1NCCCN1c1ccc(Cl)nc1` to `O=C(Oc1ccc([N+](=O)[O-])cc1)C(=O)N1CCOC1=O`, the melting point falls from 202 °C to 159 °C.

First: COc1ccc(C(Cl)=CC(=O)C(F)(F)C(F)(F)F)cc1OC
Second: CN(C(=O)Nc1nc(OCC(F)(F)F)cc(OCC(F)(F)F)n1)c1ccc(CC(F)(F)F)s1
The melting point of the first is lower: 67 °C for the first, 99 to 101 °C for the second.

Compared with `C=CC(=O)N1c2ccccc2CC1C(=O)O` (centres undefined), `O=C(O)COc1cc(Br)c2oc3ccccc3c(=O)c2c1` is higher in melting point: 158 to 160 °C for the first, 219 to 221 °C for the second.

First: CC(C)(C)C(Cc1ccc(Br)cc1)C(=O)n1ccnc1 (centres undefined)
Second: CC(C)C(NS(=O)(=O)c1ccc(Cl)cc1)c1ccc(CCCC(=O)O)cc1 (single isomer, unassigned; (+))
The melting point of the first is lower: 101 to 102 °C for the first, 117 to 119 °C for the second.

First: CNC(=O)C1(CCCN2CCCCC2)CC=CCC1c1ccccc1 (centres undefined)
Second: COc1cc(N)c(Cl)cc1C(=O)NCC1CCN(CCCCCCCC(=O)c2ccccc2)CC1
The melting point of the first is higher: 145 to 147 °C for the first, 138 to 140 °C for the second.

First: CC12CCCc3cc(C(=O)O)cc(c31)CCC2
Second: CN1CCC(O)(c2cccn2C)CC1
The melting point of the first is higher: 213 to 215 °C for the first, 123 to 124 °C for the second.

First: Cc1c(C(=O)O)sc2ccc(CO)cc12
Second: COc1cccc(N2C(CO)=Cc3ccsc3S2(=O)=O)c1
The melting point of the first is higher: 260 to 262 °C for the first, 141 to 143 °C for the second.

First: CC(=O)OC1C(OC(=O)c2ccc(N)cc2)C=C(C)C(=O)CC1(C)C (centres undefined)
Second: CCOC(=O)c1ccc(/C=C(\C)c2cc3c(cc2OC)C(C)(C)CCC3(C)C)cc1
The melting point of the first is higher: 158 to 160 °C for the first, 97 to 98 °C for the second.

Compared with `Cc1cccc(NC(=O)c2ccn3c2CSC3c2cccnc2)n1` (centres undefined), `Cc1cccc(-c2sc(NC(=O)Nc3ccccc3)nc2-c2cc(C)nc(C)c2)c1` is higher in melting point: 162 °C for the first, 173 to 174 °C for the second.

Compared with `OOC1(OO)C2CC3CC(C2)CC1C3`, `CC(=O)OC1CSC(Oc2cccc(I)c2)C(OC(C)=O)C1OC(C)=O` (centres undefined) is lower in melting point: 144 to 145 °C for the first, 127 °C for the second.

First: c1cc2sc(C3OCCO3)cc2s1
Second: Nc1nc(N)c(-c2ccc(Cl)cc2Cl)c(C(F)(F)F)n1
The melting point of the first is lower: 88 to 90 °C for the first, 220 to 221 °C for the second.

First: CCCOC(=O)C(=C1SC=CS1)S(=O)(=O)C(C)C
Second: Cc1nc2c(N)nc3cc(OCCNC(=O)C(C)C)ccc3c2n1CC(C)C
The melting point of the first is lower: 78 to 79 °C for the first, 205 to 206 °C for the second.

Compared with `CCCCCCCCCCCn1ncnc1NC(=O)Nc1c(C(C)C)cccc1C(C)C`, `CCOC(=O)c1c(-c2ccc(C(C)(C)C)cc2)n(C)n(-c2ccc(C#N)cc2)c1=O` is higher in melting point: 146 to 148 °C for the first, 202 to 204 °C for the second.

First: O=C(O)CCc1c([N+](=O)[O-])cc(O)c(O)c1[N+](=O)[O-]
Second: COc1cc2c(cc1OC)C(=Cc1cc(O)ccc1[N+](=O)[O-])OC2=O
The melting point of the first is lower: 162 to 165 °C for the first, 253 °C for the second.

First: OCC1OC(n2cnc3c(Nc4ccccc4)ncnc32)CC1F (centres undefined)
Second: CN(C)C1CCN(c2nc(N3CCOCC3)c3ncnc(N(CCC#N)Cc4ccccc4)c3n2)CC1
The melting point of the first is higher: 83 °C for the first, 45 to 47 °C for the second.

Compared with `Cn1nc(-c2c(F)cccc2Cl)nc1-c1ccc(Oc2ccc(C(F)(F)F)cn2)cc1Cl`, `CC(C(=O)Oc1cc(=O)n(-c2cccc(OC(F)(F)F)c2)c2ncccc12)c1ccccc1` (centres undefined) is lower in melting point: 139 to 141 °C for the first, 115 to 117 °C for the second.

Compared with `CCN(CC)C(=O)C=Cc1cc(OC)c(OC)c(OC)c1`, `COc1cc2cc(Cc3ccccc3)c(C)cc2c(C(C)C)c1OC` is higher in melting point: 132 °C for the first, 159 to 161 °C for the second.

Compared with `Cc1cccc2c1N(CC(=O)c1cccc([N+](=O)[O-])c1)C(=O)C(NC(=O)Nc1cccc(-c3nnn[nH]3)c1)N=C2c1ccccc1F` (centres undefined), `O=C(Nc1ccccc1)ONC1=Nc2ccc(Br)cc2C(c2ccccn2)=NC1` is lower in melting point: 194 to 198 °C for the first, 190 to 192 °C for the second.

First: C=Cc1ccc(P(c2ccccc2)c2ccccc2)cc1
Second: N#Cc1ccc(OCc2ccc3c(c2)OCO3)cc1OC(C(=O)O)c1ccccc1Cl (racemic)
The melting point of the first is lower: 77 to 78 °C for the first, 144 to 145 °C for the second.

First: Cc1ccc(NC(=O)c2cc(Cl)ccc2NCC2CCN(C3CCCCC3)CC2)nc1
Second: COc1ccccc1C(Nc1cc(Cl)c(Cl)cc1Cl)C(=O)O (centres undefined)
The melting point of the first is lower: 176 to 178 °C for the first, 188 °C for the second.

First: CNC(=O)ON=C1N=C(C(C)C)C(C)(C)S1
Second: Cc1cc(C=CC#N)cc(Oc2c(C(C)C)c(=O)[nH]c(=O)n2Cc2ccnc(N3C(=O)c4ccccc4C3=O)c2)c1
The melting point of the first is lower: 89 to 91 °C for the first, 229 to 231 °C for the second.

Work on `Cc1cccc(Nn2cnc(C)c2-c2cccc(C#N)c2)c1` yielded a melting point of 138 to 140 °C.
